Measured values taken from ChEMBL document CHEMBL5393444, “Sulfonamide derivatives as ctps1 inhibitors” (2022).

Species: Homo sapiens
Experiment: Selectivity ratio of IC50 for human CTPS2 to IC50 for human CTPS1 by RapidFire/MS analysis

Row | Structure (SMILES) | Ratio IC50
1 | CCC(C(=O)Nc1ncc(-c2cncc(OC)n2)cc1F)c1ccnc(NS(=O)(=O)C2CC2)n1 (configuration not stated) | 2
2 | CCOc1cncc(-c2ccc(NC(=O)C(C)(C)c3nc(NS(=O)(=O)C4CC4)ncc3C)cc2)n1 | 2
3 | CCOc1cncc(-c2ccc(NC(=O)C(F)(CC)c3ccnc(NS(=O)(=O)C4CC4)n3)nc2)n1 (stereo in doubt; form 3) | > 60
4 | CCOc1cncc(-c2ccc(NC(=O)C(C)(OC)c3cncc(NS(=O)(=O)C4CC4)n3)nc2)n1 (stereo in doubt; form 1) | > 60
5 | CC(C)Oc1cncc(-c2ccc(C(=O)NC(C)(C)c3cncc(NS(=O)(=O)C4CC4)n3)c(F)c2)n1 | 2
6 | CCOc1cncc(-c2ccc(NC(=O)C(F)(CC)c3ccnc(NS(=O)(=O)C4CC4)n3)nc2)n1 (stereo in doubt; form 1) [listing 1 of 2 here] | 30
7 | CCOc1cncc(-c2ccc(NC(=O)C(C)(C)c3nc(NS(=O)(=O)C4CC4)ncc3F)cc2)n1 | 30
8 | CC(C)(C(=O)Nc1ccc(-c2cccnc2)cc1)c1ccnc(NS(=O)(=O)C2CC2)n1 | 2
9 | CCOc1cncc(-c2ccc(NC(=O)C(F)(CC)c3cncc(NS(=O)(=O)C4CC4)n3)nc2)n1 (stereo in doubt; form 1) [listing 1 of 2 here] | 30
10 | CC(C)(C(=O)Nc1ccc(-c2cncc(C3CC3)n2)cn1)c1ccnc(NS(=O)(=O)C2CC2)n1 | 30
11 | CCOc1cncc(-c2ccc(NC(=O)C3(c4ccnc(NS(=O)(=O)C5CC5)n4)CCC(N(C)C)CC3)nc2)n1 (stereo in doubt; form 2) | > 60
12 | CCOc1cncc(-c2ccc(NC(=O)C(F)(CC)c3ccnc(NS(=O)(=O)C4CC4)n3)nc2)n1 (stereo in doubt; form 2) | 2

Second part, the molecule after the results:

Row | Ratio IC50 | Structure (SMILES)
13 | 2 | CCOc1cncc(-c2ccc(NC(=O)C3(c4ccnc(NS(=O)(=O)C5CC5)n4)CCC(O)CC3)nc2)n1 (single isomer, unassigned)
14 | 2 | CC(C)(NC(=O)c1ccc(-c2cncc(C(F)(F)F)n2)cc1)c1cncc(NS(=O)(=O)C2CC2)n1
15 | 2 | CCC(C(=O)Nc1ccc(-c2cncc(C(F)(F)F)n2)cc1)c1ccnc(NS(=O)(=O)C2CC2)n1 (configuration not stated)
16 | 30 | CCOc1cncc(-c2ccc(NC(=O)C(C)(C)c3ccnc(NS(C)(=O)=O)n3)nc2)n1
17 | 30 | CCOc1cncc(-c2ccc(NC(=O)C(CC)c3cccc(NS(=O)(=O)C4CC4)n3)cc2)n1 (configuration not stated)
18 | 30 | O=C(Cc1ccnc(NS(=O)(=O)C2CC2)n1)Nc1ccc(-c2cccnc2)cc1
19 | 30 | CCOc1cncc(-c2ccc(NC(=O)C(C)(OC)c3cncc(NS(=O)(=O)C4CC4)n3)nc2)n1 (stereo in doubt; form 2)

Target: T1, CTP synthase 1 (Homo sapiens, UniProt P17812)
T1 sequence (P17812 whole entry): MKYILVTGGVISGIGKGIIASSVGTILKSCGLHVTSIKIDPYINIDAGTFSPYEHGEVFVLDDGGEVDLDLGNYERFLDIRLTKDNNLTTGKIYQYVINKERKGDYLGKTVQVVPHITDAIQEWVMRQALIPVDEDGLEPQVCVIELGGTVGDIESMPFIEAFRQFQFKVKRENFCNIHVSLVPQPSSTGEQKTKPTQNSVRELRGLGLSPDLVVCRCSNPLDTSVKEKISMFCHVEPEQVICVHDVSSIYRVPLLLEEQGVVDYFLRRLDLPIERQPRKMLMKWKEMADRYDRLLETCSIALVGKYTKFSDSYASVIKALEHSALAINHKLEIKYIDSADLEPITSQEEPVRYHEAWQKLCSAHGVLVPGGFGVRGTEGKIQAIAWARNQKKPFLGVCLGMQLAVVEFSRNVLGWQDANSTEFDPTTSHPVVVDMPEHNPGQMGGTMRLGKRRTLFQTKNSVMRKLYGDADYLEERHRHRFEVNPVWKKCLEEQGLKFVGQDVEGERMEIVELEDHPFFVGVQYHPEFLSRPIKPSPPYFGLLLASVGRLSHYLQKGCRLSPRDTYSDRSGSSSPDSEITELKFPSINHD
Experiment: Inhibition of C-terminal FLAG-His8-tagged full length human CTPS1 preincubated for 10 mins followed by substrate addition by ADP-Glo assay

Row | Structure (SMILES) | IC50 [nM]
20 | COc1cncc(-c2ccc(NC(=O)Cc3ccnc(NS(=O)(=O)C4CC4)n3)cc2)n1 | ≤ 100
21 | CCOc1cncc(-c2ccc(NC(=O)C(C)(C)c3ccnc(NS(=O)(=O)C4CC4)n3)c(OC)c2)n1 | ≤ 100
22 | CCC(C(=O)Nc1ccc(-c2cncc(Cl)c2)cn1)c1ccnc(NS(=O)(=O)C2CC2)n1 (configuration not stated) | ≤ 100
23 | CC(C)(C(=O)Nc1ccc(-c2cncc(C(F)(F)F)n2)cn1)c1ccnc(NS(=O)(=O)C2CC2)n1 | ≤ 100
24 | COc1cncc(-c2ccc(NC(=O)C(C)(C)c3ccnc(NS(=O)(=O)C4CC4)n3)cc2)n1 | ≤ 100
25 | CCOc1cncc(-c2cc(F)c(NC(=O)C(C)(C)c3ccnc(NS(=O)(=O)C4CC4)n3)c(F)c2)n1 | ≤ 100
26 | COc1cncc(-c2ccc(NC(=O)Cc3cccc(NS(=O)(=O)C4CC4)n3)cc2)n1 | ≤ 100
27 | CCOc1cncc(-c2ccc(NC(=O)C3(c4ccnc(NS(=O)(=O)C5(C#N)CC5)n4)CCOCC3)nc2)n1 | ≤ 100
28 | Cc1ncc(-c2ccc(NC(=O)C(C)(C)c3ccnc(NS(C)(=O)=O)n3)c(C)c2)cn1 | ≥ 1000
29 | CCOc1cncc(-c2ccc(NC(=O)C3(c4ccnc(NS(=O)(=O)C5CC5)n4)CCC(N(C)C)CC3)nc2)n1 (stereo in doubt; form 1) | ≤ 100
30 | CCOc1cncc(-c2ccc(NC(=O)C3(c4ccnc(NS(=O)(=O)C5CC5)n4)CCC(O)CC3)nc2)n1 (stereo in doubt) | ≤ 100
31 | CCOc1cncc(-c2ccc(NC(=O)C3(c4ccnc(NS(=O)(=O)C5CC5)n4)CCOCC3)cc2)n1 | ≤ 100
32 | CC(C)(C(=O)Nc1ccc(-c2cncc(OC3CC3)n2)cn1)c1ccnc(NS(=O)(=O)C2CC2)n1 | ≤ 100
33 | CCOc1cncc(-c2ccc(NC(=O)C(F)(c3ccnc(NS(=O)(=O)C4CC4)n3)C(C)C)nc2)n1 (configuration not stated) | ≤ 100
34 | CCOc1cncc(-c2ccc(NC(=O)C(C)(C)c3ccnc(NS(=O)(=O)C4CC4)n3)c(Cl)c2)n1 | ≤ 100
35 | CC(C)(C(=O)Nc1ccc(-c2cncc(C(F)(F)F)n2)cc1F)c1ccnc(NS(=O)(=O)C2CC2)n1 | ≤ 100
36 | CC(C)(C(=O)Nc1ccc(-c2cncc(OC(F)F)c2)cc1)c1ccnc(NS(=O)(=O)C2CC2)n1 | ≤ 100

Row | Structure (SMILES) | IC50 [nM]
37 | CCOc1cncc(-c2ccc(NC(=O)C(c3ccnc(NS(=O)(=O)C4CC4)n3)C(C)C)nc2)n1 (configuration not stated) | ≤ 100
38 | CCC(F)(C(=O)Nc1ccc(-c2cncc(C3CC3)n2)cn1)c1ccnc(NS(=O)(=O)C2CC2)n1 (configuration not stated) | ≤ 100
39 | CCC(C(=O)Nc1ccc(-c2cncc(OC(C)C)n2)cc1F)c1ccnc(NS(=O)(=O)C2CC2)n1 (configuration not stated) | ≤ 100
40 | CCOc1cncc(-c2ccc(NC(=O)C(c3ccnc(NS(=O)(=O)C4CC4)n3)C(C)C)c(F)c2)n1 (configuration not stated) | ≤ 100
41 | CCOc1cncc(-c2ccc(NC(=O)C3(c4cccc(NS(=O)(=O)C5CC5)n4)CCOCC3)nc2)n1 | ≤ 100
42 | CCOc1cncc(-c2ccc(NC(=O)C(F)(CC)c3cncc(NS(=O)(=O)C4CC4)n3)nc2)n1 (stereo in doubt; form 1) [listing 2 of 2 here] | ≤ 100
43 | CCC(F)(C(=O)Nc1ccc(-c2cncc(Cl)c2)cn1)c1ccnc(NS(=O)(=O)C2CC2)n1 (configuration not stated) | ≤ 100
44 | CC(C)(C(=O)Nc1ccc(-c2cncc(C(F)(F)F)n2)cc1)c1ccnc(NS(=O)(=O)C2CC2)n1 | ≤ 100
45 | CCOc1cccc(-c2ccc(NC(=O)C(C)(C)c3ccnc(NS(=O)(=O)C4CC4)n3)cc2)c1 | 10000
46 | CCC(C(=O)Nc1ccc(-c2cncc(C3CC3)n2)cc1F)c1ccnc(NS(=O)(=O)C2CC2)n1 (configuration not stated) | ≤ 100
47 | CCOc1cncc(-c2ccc(NC(=O)C(C)(C)c3ccnc(NS(=O)(=O)C4CC4)n3)c(OC(F)(F)F)c2)n1 | ≤ 100
48 | CCC(C(=O)Nc1ccc(-c2cncc(OCC(F)(F)F)n2)cn1)c1ccnc(NS(=O)(=O)C2CC2)n1 (configuration not stated) | ≤ 100
49 | CCOc1cncc(-c2ccc(NC(=O)C(F)(F)c3ccnc(NS(=O)(=O)C4CC4)n3)c(F)c2)n1 | ≤ 100
50 | CCOc1cncc(-c2ccc(NC(=O)C(OC)c3cncc(NS(=O)(=O)C4CC4)n3)cc2)n1 (configuration not stated) | ≤ 100
51 | CCS(=O)(=O)Nc1nccc(C(C)(C)C(=O)Nc2ccc(-c3cncc(OC)n3)cc2F)n1 | ≤ 1000
52 | CCC(C(=O)Nc1ccc(-c2cncc(C3CC3)n2)cn1)c1ccnc(NS(=O)(=O)C2CC2)n1 (configuration not stated) | ≤ 100

Other lines, results leading:

Row | IC50 [nM] | Structure (SMILES)
53 | ≤ 100 | CCOc1cncc(-c2cnc(NC(=O)C(C)(C)c3ccnc(NS(=O)(=O)C4CC4)n3)c(F)c2)n1
54 | ≤ 100 | CCOc1cncc(-c2ccc(C(=O)NC(CC)c3cncc(NS(=O)(=O)C4CC4)n3)c(F)c2)n1 (configuration not stated)
55 | ≤ 100 | CCOc1cncc(-c2cnc(NC(=O)C(CCOC)c3ccnc(NS(=O)(=O)C4CC4)n3)c(F)c2)n1 (configuration not stated)
56 | ≤ 100 | O=C(Cc1ccnc(NS(=O)(=O)C2CC2)n1)Nc1ccc(-c2cncc(OCC(F)(F)F)n2)cc1
57 | ≤ 100 | CCOc1cncc(-c2ccc(NC(=O)C(CC)c3nccc(NS(=O)(=O)C4CC4)n3)nc2)n1 (configuration not stated)
58 | ≤ 100 | CCOc1cncc(-c2ccc(NC(=O)C(C)(C)c3ccnc(NS(=O)(=O)C4CC4)n3)cn2)n1
59 | ≤ 100 | CCC(NC(=O)c1ccc(-c2cncc(OC(C)C)n2)cc1)c1ccnc(NS(=O)(=O)C2CC2)n1 (configuration not stated)
60 | ≤ 100 | O=C(Cc1ccnc(NS(=O)(=O)C2CC2)n1)Nc1ccc(-c2cncc(C(F)(F)F)n2)cc1F
61 | ≤ 100 | CCOc1cncc(-c2ccc(NC(=O)C(CC)(CC)c3ccnc(NS(=O)(=O)C4CC4)n3)cc2)n1
62 | ≤ 100 | CC(C)Oc1cncc(-c2ccc(NC(=O)C(C)(C)c3ccnc(NS(=O)(=O)C4CC4)n3)cc2)n1
63 | ≤ 100 | CCOc1cncc(-c2ccc(NC(=O)C3(c4ccnc(NS(=O)(=O)C5CC5)n4)CCC(OC)CC3)nc2)n1 (configuration not stated)
64 | ≤ 100 | CCOc1cncc(-c2ccc(NC(=O)C(OC)c3cncc(NS(=O)(=O)C4CC4)n3)nc2)n1 (configuration not stated)
65 | ≤ 100 | CCOc1cncc(-c2ccc(NC(=O)C(C)(OC)c3cncc(NS(=O)(=O)C4CC4)n3)nc2)n1 (configuration not stated)
66 | ≤ 100 | CCC(C(=O)Nc1ccc(-c2cncc(OC(C)C)n2)cc1)c1ccnc(NS(=O)(=O)C2CC2)n1 (configuration not stated)
67 | ≤ 100 | CCOc1cncc(-c2ccc(NC(=O)C(C)(C)c3ccnc(NS(C)(=O)=O)n3)cc2)n1
68 | ≤ 100 | CCOc1cncc(-c2ccc(NC(=O)C3(c4ccnc(NS(=O)(=O)C5CC5)n4)CC4(C3)OCCO4)nc2)n1
69 | ≤ 100 | CCOc1cncc(-c2ccc(NC(=O)C(F)(CC)c3ccnc(NS(=O)(=O)C4CC4)n3)nc2)n1 (stereo in doubt; form 1) [listing 2 of 2 here]
70 | ≤ 100 | O=C(Cc1ccnc(NS(=O)(=O)C2CC2)n1)Nc1ccc(-c2cncc(C(F)(F)F)n2)cc1
71 | ≤ 100 | CCC(C(=O)Nc1ccc(-c2cncc(C(F)(F)F)n2)cc1F)c1ccnc(NS(=O)(=O)C2CC2)n1 (configuration not stated)
72 | ≤ 100 | CCC(C(=O)Nc1ccc(-c2cncc(OC)n2)cc1)c1ccnc(NS(=O)(=O)C2CC2)n1 (configuration not stated)
